# Publication PMC4912613, “A broad analysis of resistance development in the malaria parasite” (Nature Communications, 2016)
# What was measured:
# [1] = system: Stage 5 gametocytes from P. falciparum NF54; experiment: Late-stage (stage V) gametocyte survival assay, MitoTracker; format: cell-based, Plasmodium falciparum; conditions: for EC50: Plasmodium falciparum, P. falciparum NF54, 72 h, read-out: Stage 5 Gametocyte EC50; for EC50 fold shift compared to asexual stage: Stage 5 Gametocyte EC50: gametocyte EC50 / 3D7 EC50
# Experimental: The second assay was a late-stage (stage V) gametocyte survival assay, which predicts transmission-blocking activity. […] Positive and negative control compounds included puromycin (0.61±0.11 μM) and atovaquone (> 12.50 μM), respectively.
# To test sexual-stage activity, compounds were tested against late-stage gametocytes using a MitoTracker fluorescent-based assay. Specifically, synchronized stage V gametocytes were incubated with compound for 72 h. MitoTracker Red CMXRos (Life Technologies) was added to each well (final concentration: 500 nM) together with saponin to lyse the RBCs. Each plate was then imaged with an Operetta High Content Imaging System (Perkin Elmer) for fluorescence (590–640 nm). Varying levels of compound concentration were used (1.25 μM or 12.5 μM) due to the stock concentration supplied.
# The gametocytocidal activity was measured using high-content image analysis software (Harmony, Perkin Elmer). The readout was based on number of metabolically active gametocytes per well.
# [2] = system: P. falciparum 3D7, Dd2, Dd2Δexo; experiment: In vitro evolution of compound-resistant lines (selection); format: cell-based, Plasmodium falciparum; conditions: for Time Length to Obtain Mutants: in vitro selection; for # of Resistant Strains Generated: resistant cultures out of three independent cultures; for EC50 fold shifts observed: selected parasites vs selection parent
# Description: While we found an overall lack of pre-existing resistance, analysing the onset of resistance was critical, as compounds resulting in rapid resistance are not ideal for clinical development. We therefore sought to create drug-resistant parasites using a variety of different selection methods. We implemented either a high-dose method or a ramp-up/pulse method for our in vitro selections. Two of the 50 compounds—MMV028895 and MMV665824—were removed from the selection study during experimentation. […] Out of the remaining 48 compounds, resistant parasites were obtained for 23 (Supplementary Data 1). As each selection was performed in triplicate with three independent cultures, we succeeded in generating a total of 66 resistant cultures. Parasites resistant to MMV026596 were not obtained despite 100 days of selection, but the cultures acquired hypersensitivity to mefloquine with a 10-fold reduction in EC50 compared with its parental line, 3D7. For the remaining 24 compounds, acquisition of resistant parasites was unsuccessful despite numerous attempts over an extensive period of time.
# Based on the compound speed of action and lab specialty, selections were conducted using a high-pressure intermittent selection method, a step-wise selection method, or a constant selection method. For high-pressure selections, ∼1–2 × 10^9 parasites were treated at a concentration of 3–10 × EC50 until parasites could not be seen by microscopy (4–10 days). Following treatment, compound pressure was removed and cultures were allowed to recover. Once healthy parasites were seen and parasitemia reached ∼2%, compound pressure was reinstated. For step-wise selections, ∼1 × 10^8 parasites were treated at a starting concentration resulting in a reduced growth rate of 50%. Cultures were examined daily by microscopy, increasing compound concentration in increments of 5–10% as needed to maintain a 50% reduced growth rate. Selections were carried out until cultures achieved a reproducible EC50 fold shift of >3 × . Finally, constant selections were conducted in a similar manner to the high-pressure intermittent method with the exception that compound pressure was never removed. Following successful selection, cultures were cloned out using a limiting dilution method as previously described. Selections were terminated after 200 days if resistance could not be obtained.
# [3] = system: ATQ-R5 (cytb F267V, parent 3D7); experiment: Cross-resistance EC50 assay, ATQ-R5; format: cell-based, Plasmodium falciparum; conditions: Plasmodium falciparum, 3D7; SYBR green 72 hour assay; asynchronized parasites; 96-well or 1536-well format; ATQ-R5
# Description: (§1) To evaluate potential overlapping activity against known antimalarial drug targets, we performed dose-response studies with each compound against our assembled set of drug-resistant lines and their corresponding parents, in an asexual blood stage proliferation assay (Table 1). Comparisons were made to the drug-sensitive strain 3D7 when a parent was unavailable (TM90C2A, W2 and Dd2). As laboratories conducted EC50 assays with different strains and protocols, all comparisons were made between assays from the same laboratory and under the same assay conditions. Compounds displaying >5-fold EC50 shifts relative to the parent or sensitive strain were flagged as having potentially non-novel targets. Average fold shifts per strain ranged from 0.82 to 2.34, with a median of 1.23 indicating there was not common resistance to any one resistant clone. No resistance patterns were observed when classifying the compounds based on chemical structure, but this was not surprising given the diversity of compounds chosen. On the other hand, given that these confirmed compounds were derived from larger unconfirmed hit lists to which some filtration criteria may have been applied (for example, elimination of obvious dihydrofolate reductase inhibitors[32]), some[10][11][12][13] pre-existing bias may exist in the set. […]
# (§2) Alternatively, a SYBR Green-based proliferation approach was used for the 72-h assay, as previously described. Briefly, a culture of either synchronized or asynchronous parasitized RBCs (0.3% parasitemia and 4% haematocrit) in screening medium (identical to supplemented medium above except no serum was added) was exposed to serial drug dilutions. Plates were incubated at 37 °C and gassed with 93% N2, 4% CO2 and 3% O2 for 72 h. Following incubation, 10 × SYBR Green I (Invitrogen; supplied in 10,000 × concentration) in lysis buffer ([…], 5 mM EDTA, 0.16% Saponin wt per vol and 1.6% Triton X vol per vol) was added to the wells and the plates were incubated overnight at room temperature before plate reading. EC50 assays were repeated three times, taking the average EC50 value from each assay set, and removing any outliers using a single iteration of Grubbs' test, eliminating values with z-scores above the critical z-value (α=0.05). The raw EC50 values for synchronized parasites assayed in a 384-well format are listed in Supplementary Data 4. The raw EC50 values for asynchronous parasites assayed in a 96 or 1536-well format are listed in Supplementary Data 5.
# (§3) EC50 values for each strain were compared with those of the corresponding parent strain to determine fold-shift changes and identify resistance. To minimize the cause variance between assays, all comparisons were conducted between strains assayed under identical conditions. A one-way ANOVA followed by a Dunnet's post-test was conducted in GraphPad Prism to identify significant changes between the parent and resistant strain.
# [4] = system: ProRS (prolyl t-RNA synthetase L482H, parent Dd2); experiment: Cross-resistance EC50 assay, ProRS; format: cell-based; conditions: Plasmodium falciparum; SYBR green 72 hour assay; synchronized parasites; 384-well format; strain ProRS (Dd2 parent)
# Description: as §1, §2, §3
Compound,EC50 [1] [nM],Time Length to Obtain Mutants [2],# of Resistant Strains Generated [2],EC50 fold shifts observed [2],EC50 [3] [µM],EC50 [4] [nM],EC50 fold shift compared to asexual stage: Stage 5 Gametocyte EC50 [1]
O=C(Nc1ccc(Cl)c(Cl)c1)Nc1ccc(Cl)c(Cl)c1 [MMV665852],> 1250,LONG (> 125 days),0/3,no shift,2.71,716,–
Brc1ccc(Nc2nc3ccccc3nc2Nc2ccc(Br)cc2)cc1 [MMV007224],2520,LONG (> 125 days),3/3,1.7x,0.719,298,11.35
Nc1ncc(-c2cn[nH]c2)cc1-c1nc2ccc(F)cc2[nH]1 [MMV023367],6680,LONG (> 125 days),3/3,3x,1.53,517,22.12
CCOc1cc2c(cc1OCC)C(c1cc(Cl)ccc1O)NCC2 (stereo not shown) [MMV000478],> 1250,LONG (> 125 days),0/3,no shift,0.733,622,> 1.25
CC(C)c1cccc(C(NC(=O)C2Cc3ccccc3CN2C(=O)c2cccc(N3CCOCC3)c2)C2CCCC2)c1 (stereo not shown) [MMV028038],1180,MODERATE (50-125 days),3/3,5-30x,0.839,297,2.19
O=C(Nc1ccsc1C(=O)NC1CCCCC1)c1ccc(F)cc1 [MMV665939],> 1250,MODERATE (50-125 days),3/3,4-6x,3.43,2380,–
CN1CCN(c2ccc(Nc3c4ccccc4nc4ccccc34)cc2)CC1 [MMV006172],919,LONG (> 125 days),0/3,no shift,0.181,125,–
CN(C)Cc1ccc(-c2cc3c(-c4ccc(CN(C)C)cc4)ccnc3[nH]2)cc1.O=C(O)C(F)(F)F [MMV022224],2330,LONG (> 125 days),0/3,no shift,0.358,294,–
CC(NCc1ccccc1)c1cc(Cl)ccc1O (stereo not shown) [MMV665789],> 1250,MODERATE (50-125 days),2/3,3-7x,0.29,334,> 1
Cc1ccc(Oc2ncccc2C(=O)Cc2cccc3cccnc23)c(C)c1 [MMV020746],3790,SHORT (0-50 days),3/3,6-19x,1.49,278,49.87
CC(C)(C)OC(=O)N1CCN(c2ccccc2NC(=O)c2cccc(C(F)(F)F)c2Oc2ccc(F)cc2)CC1 [MMV030666],993,LONG (> 125 days),0/3,no shift,0.251,284,2.04
CCCN(CCC)CC(O)COc1ccccc1C(=O)Nc1ccccc1 (stereo not shown) [MMV006455],> 1250,LONG (> 125 days),0/3,no shift,0.548,897,> 2.3
c1cc(-c2cnc3ccc(-c4ccc(N5CCOCC5)cc4)nn23)ccn1 [MMV668311],879,LONG (> 125 days),0/3,no shift,0.029,62,18.31
COc1ccc(N2CCN(C(CNC(=O)C3CCCCC3)c3ccc4c(c3)OCO4)CC2)cc1 (stereo not shown) [MMV019662],3680,MODERATE (50-125 days),3/3,15x,0.596,481,10.82
